According to ChEMBL document CHEMBL1201862, “PubChem BioAssay data set” (2004):
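48-hour exposure; five concentrations; linearly interpolated endpoints. GI50 = concentration required for 50% inhibition of growth.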 Calls of active or inactive are those of the source. Rule as the data show it: active = GI50 up to about 1.1 µM and inactive = higher.

Legend:
Test in all cases: NCI anticancer screen, dose series, 48 h
786-0 = test system: 786-0
A549 = test system: A549
CAKI-1 = test system: CAKI-1
HCT-15 = test system: HCT-15
HT-29 = test system: HT-29
IGROV-1 = test system: IGROV-1
K562 = test system: K562
LOX IMVI = test system: LOX IMVI
M14 = test system: M14
MOLT-4 = test system: MOLT-4
SN12C = test system: SN12C
SNB-19 = test system: SNB-19
SR = test system: SR
SW-620 = test system: SW-620
TK-10 = test system: TK-10
UO-31 = test system: UO-31
OVCAR-5 = test system: OVCAR-5
SF-268 = test system: SF-268
RXF 393 = test system: RXF 393

SMILES	GI50 (786-0)	GI50 (A549)	GI50 (CAKI-1)	GI50 (HCT-15)	GI50 (HT-29)	GI50 (IGROV-1)	GI50 (K562)	GI50 (LOX IMVI)	GI50 (M14)	GI50 (MOLT-4)	GI50 (SN12C)	GI50 (SNB-19)	GI50 (SR)	GI50 (SW-620)	GI50 (TK-10)	GI50 (UO-31)	GI50 (OVCAR-5)	GI50 (SF-268)	GI50 (RXF 393)
COc1cc(-c2cc(O)c3cc4c(cc3n2)OCO4)cc(OC)c1OC	> 100 µM (inactive)	> 100 µM (inactive)	> 100 µM (inactive)	> 100 µM	> 100 µM (inactive)	> 100 µM (inactive)	> 100 µM (inactive)	59.3 µM (inactive)	> 100 µM (inactive)	> 100 µM (inactive)	70.1 µM (inactive)	40.3 µM (inactive)	71 µM (inactive)	> 100 µM (inactive)	> 100 µM (inactive)	> 100 µM (inactive)			
COc1ccc(C(c2ccc(C(C)C)cc(=O)c2O)c2ccc3cccnc3c2O)cc1 (stereo unspecified)	1.63 µM (inactive)	0.328 µM (active)	1.79 µM (inactive)	0.449 µM	3.07 µM (inactive)	0.425 µM (active)	0.399 µM (active)	0.499 µM (active)	0.933 µM (active)	0.558 µM (active)	0.415 µM (active)		1 µM (active)	3.68 µM (inactive)		0.421 µM (active)	1.58 µM (inactive)	0.399 µM (active)	
Cc1cc(N(CCC#N)CCC#N)ccc1/C=C(\NC(=O)/C=C/c1ccccc1)C(=O)Nc1ccccc1Cl	> 100 µM (inactive)	> 100 µM (inactive)	78.7 µM (inactive)	> 100 µM	> 100 µM (inactive)	> 100 µM (inactive)	> 100 µM (inactive)	> 100 µM (inactive)	> 100 µM (inactive)	> 100 µM (inactive)	> 100 µM (inactive)	> 100 µM (inactive)		> 100 µM (inactive)		> 100 µM (inactive)	> 100 µM (inactive)	> 100 µM (inactive)	> 100 µM (inactive)
Clc1cc2nsnc2c(Cl)n1	16.9 µM (inactive)	50 µM (inactive)	10.8 µM (inactive)	21.3 µM	21.7 µM (inactive)	26.2 µM (inactive)	5.41 µM (inactive)	33 µM (inactive)	15.2 µM (inactive)	14.2 µM (inactive)		19 µM (inactive)		10.2 µM (inactive)	20.9 µM (inactive)	20.6 µM (inactive)	43 µM (inactive)	26.4 µM (inactive)	
CC(=O)Nc1ccc(C(=O)NN2C(=O)C(Cl)C2c2cccc([N+](=O)[O-])c2)cc1 (stereo unspecified)		> 100 µM (inactive)			> 100 µM (inactive)	> 100 µM (inactive)	> 100 µM (inactive)			> 100 µM (inactive)		> 100 µM (inactive)	> 100 µM (inactive)	> 100 µM (inactive)	> 100 µM (inactive)	> 100 µM (inactive)	> 100 µM (inactive)	> 100 µM (inactive)	
CCOC(=O)C1S/C(=N\c2ccc(Cl)cc2Cl)N=C1C (stereo unspecified)	53.3 µM (inactive)	76.4 µM (inactive)	66.2 µM (inactive)	> 100 µM	> 100 µM (inactive)	> 100 µM (inactive)	> 100 µM (inactive)	74.5 µM (inactive)	81.8 µM (inactive)		> 100 µM (inactive)	47.5 µM (inactive)		> 100 µM (inactive)	> 100 µM (inactive)	> 100 µM (inactive)	> 100 µM (inactive)	> 100 µM (inactive)	27.5 µM (inactive)
CCn1c(=O)c(C(=O)O)c(Cl)c2cc3c(cc21)OCO3		> 100 µM (inactive)	> 100 µM (inactive)	> 100 µM	> 100 µM (inactive)	> 100 µM (inactive)	> 100 µM (inactive)	> 100 µM (inactive)		> 100 µM (inactive)	> 100 µM (inactive)	> 100 µM (inactive)		> 100 µM (inactive)		> 100 µM (inactive)	> 100 µM (inactive)	> 100 µM (inactive)	> 100 µM (inactive)
CC1CC(C)(O)C2C3(C)CCCC2(COC3=O)C12CCC1(CCOC1=O)O2 (stereo unspecified)		> 250 µM (inactive)	> 250 µM (inactive)	> 250 µM	> 250 µM (inactive)	> 250 µM (inactive)	> 250 µM (inactive)	> 250 µM (inactive)		> 250 µM (inactive)	> 250 µM (inactive)	> 250 µM (inactive)		> 250 µM (inactive)		> 238 µM (inactive)	> 250 µM (inactive)	> 250 µM (inactive)	> 250 µM (inactive)
N#CC1C(=O)C(=O)N(c2ccccc2)C1=O (stereo unspecified)	> 100 µM (inactive)		> 100 µM (inactive)	> 100 µM	> 100 µM (inactive)	> 100 µM (inactive)	> 100 µM (inactive)	> 100 µM (inactive)	> 100 µM (inactive)		> 100 µM (inactive)	> 100 µM (inactive)		> 100 µM (inactive)	> 100 µM (inactive)	> 100 µM (inactive)	> 100 µM (inactive)	> 100 µM (inactive)	> 100 µM (inactive)
CC12CC3CC(C1)CC(N=[N+]=[N-])(C3)C2	> 100 µM (inactive)	> 100 µM (inactive)	> 100 µM (inactive)		> 100 µM (inactive)	> 100 µM (inactive)	> 100 µM (inactive)	> 100 µM (inactive)	> 100 µM (inactive)	> 100 µM (inactive)	> 100 µM (inactive)	> 100 µM (inactive)		> 100 µM (inactive)	> 100 µM (inactive)	> 100 µM (inactive)	> 100 µM (inactive)		
C/C=C(\C)C(=O)OC1C2C(C)=CC(=O)C(O)C2(C)C2C3(O)OCC24C1OC(=O)C(OC(C)=O)C4C(C)C3O (stereo unspecified)		0.0873 µM (active)	0.197 µM (active)	0.0741 µM	0.0385 µM (active)	0.0375 µM (active)	0.0375 µM (active)	0.0375 µM (active)		0.0375 µM (active)	0.0741 µM (active)			0.0594 µM (active)		0.195 µM (active)	0.111 µM (active)	0.0444 µM (active)	0.0375 µM (active)
CC1(C)N=C(N)N=C(N)N1c1ccc(CCc2ccccc2)cc1		0.46 µM (active)	21.6 µM (inactive)	37.9 µM	0.565 µM (active)	0.348 µM (active)	2.23 µM (inactive)	0.675 µM (active)		3.61 µM (inactive)	0.759 µM (active)	1.14 µM (inactive)		0.301 µM (active)		> 34.1 µM (inactive)	1.92 µM (inactive)	0.618 µM (active)	> 20.9 µM (inactive)
C=CC1(C)CCC2=C(CCC3C(C)(C(=O)OC)CCCC23C)C1=O (stereo unspecified)			30.3 µM (inactive)	20.6 µM	17 µM (inactive)	18.9 µM (inactive)	38.8 µM (inactive)	18.5 µM (inactive)	20.8 µM (inactive)		19 µM (inactive)	38.4 µM (inactive)	19 µM (inactive)	17.6 µM (inactive)	19.9 µM (inactive)	20.8 µM (inactive)	16 µM (inactive)	18.7 µM (inactive)	
OCC1OC(n2cnc3c2NC=NC[C@H]3O)C(O)C1O (stereo partly specified)		396 µM (inactive)	226 µM (inactive)	205 µM	> 450 µM (inactive)	> 450 µM (inactive)	249 µM (inactive)	170 µM (inactive)		318 µM (inactive)	293 µM (inactive)	> 450 µM (inactive)		317 µM (inactive)		282 µM (inactive)	> 450 µM (inactive)	> 384 µM (inactive)	238 µM (inactive)
CCOC(=O)CSC(=O)NCCCl	> 100 µM (inactive)	> 100 µM (inactive)	> 100 µM (inactive)	> 100 µM	> 100 µM (inactive)	> 100 µM (inactive)			> 100 µM (inactive)		> 100 µM (inactive)	> 100 µM (inactive)		> 100 µM (inactive)	> 100 µM (inactive)	> 100 µM (inactive)	> 100 µM (inactive)	> 100 µM (inactive)	> 100 µM (inactive)
COc1ccc(N(CC(=O)O)S(=O)(=O)c2ccccc2)cc1	> 100 µM (inactive)	> 100 µM (inactive)	> 100 µM (inactive)	> 100 µM	> 100 µM (inactive)	> 100 µM (inactive)	> 100 µM (inactive)	> 100 µM (inactive)	> 100 µM (inactive)	> 100 µM (inactive)	> 100 µM (inactive)	> 100 µM (inactive)		> 100 µM (inactive)	> 100 µM (inactive)	> 100 µM (inactive)	> 100 µM (inactive)		> 100 µM (inactive)
Cc1c2ccncc2c(C)c2c1[nH]c1ccccc12 [ELLIPTECINE]		0.504 µM (active)	1.21 µM (inactive)	0.402 µM	0.863 µM (active)	0.729 µM (active)	0.47 µM (active)	0.536 µM (active)		0.256 µM (active)	1.06 µM (active)	0.826 µM (active)		0.36 µM (active)		1.95 µM (inactive)	1.46 µM (inactive)	0.698 µM (active)	0.288 µM (active)
CC(C)c1oc(=O)cc2c1C(O)C1OC(=O)C3(C)C(O)C4OC4C2(C)C13 (stereo unspecified) [NAGILACTONE]		2.44 µM (inactive)	2.08 µM (inactive)	2.07 µM	1.69 µM (inactive)	2.75 µM (inactive)	1.01 µM (active)	0.653 µM (active)		0.83 µM (active)	1.31 µM (inactive)	0.573 µM (active)		1.45 µM (inactive)		4.52 µM (inactive)	9.48 µM (inactive)	4.09 µM (inactive)	1.62 µM (inactive)
